Key:
SGLT2 = SGLT2 (Homo sapiens (Human), UniProt P31639); assay: In vitro SGLT2 inhibitory activity: 1-NBDG uptake by CHO-SGLT2 cells; format: cell-based
Procedure: The effect of the compounds on SGLT2-mediated glucose uptake was investigated by establishing an SGLT2 overexpression cell model and using the fluorescent glucose (2-deoxy-1-[(7-nitro-2,1,3-benzoxadiazol-4-yl)amino]-D-glucose, 1-NBDG) tracer method to screen out candidate compounds with SGLT2 inhibitory activity.
The humanized SGLT2 overexpression cells (CHO-SGLT2) constructed from Chinese hamster ovary (CHO) cells were cultured in 1640 medium (Gibco) containing 10% fetal bovine serum (Gibco, 10270), subcultured at a ratio of 1:3, and replaced with new culture medium 3 times every week. Fluorescence detection cell culture plates and other culture flasks were purchased from Corning Company. […] Appropriate amounts of all compounds were weighed, prepared into 100 mM stock solutions with DMSO, and stored at 4° C. in the dark.
Before the 1-NBDG uptake test, CHO-SGLT2 cells were digested and seeded in a 96-well cell culture plate with a cell number of 40,000/well. After the cells were cultured for 48 h, the medium was discarded, and 100 μl of choline buffer was added to each well. After the cells were starved at 37° C. for 30 min, the choline buffer was discarded and 100 μl of the newly prepared Na^+ sodium buffer containing […] 1-NBDG and the test compounds (Compound) was added. The solvent DMSO was used as the negative control (Control) for the test compounds.
The Na^+ sodium buffer without 1-NBDG was used as the blank control (Blank). After 1 h of culture, the incubation solution was discarded. The cells were washed with choline buffer solution 3 times, and then 50 μl of neutral lysate was added to each well to lyse the cells on ice for 10 min. The fluorescence value of each well was detected using a multi-functional microplate reader at […].
At least 3 experimental replicates were set for each compound at indicated concentrations, and the data were expressed as mean±SEM. Uptake amount of 1-NBDG by cells=fluorescence value1-NBDG-fluorescence valueBlank. Inhibition rate on uptake amount of SGLT2 glucose (%)=(uptake amountcontrol−uptake amountcompound)/uptake amountcontrol×100%. Concentration-inhibition rate curves were plotted using Graphpad Prism software, and IC50 values were calculated accordingly.

normal ICR mice = assay: Blood glucose level of normal mice after oral administration of glucose; format: in vivo; settings: for Blood glucose 0 min: 0 min (fasting, 1 h after dosing); for Blood glucose 30 min: 30 min after glucose 2.0 g/kg; for Blood glucose 60 min: 60 min after glucose 2.0 g/kg; for Blood glucose 120 min: 120 min after glucose 2.0 g/kg; for AUC of blood glucose: oral glucose 2.0 g/kg; for Reduction of the area under the curve (AUC) of blood glucose: vs. normal control group
Procedure: Test Example 2 Evaluation of the in vivo activity of the compounds of the present invention: the effect on the blood glucose level of normal mice after oral administration of glucose
ICR mice (male, 18-20 g), purchased from Beijing Vital River Laboratories Co., Ltd., were fed adaptively for 4 days, and randomly divided into 4 groups, namely normal control group, positive control group, and two groups of test compounds, with 8 mice in each group.
The aforementioned stock solutions were diluted to appropriate concentrations with double distilled water.
The mice were fasted overnight. […] After 1 h, blood was collected at 0 min (fasting), and then mice in each group were administered with glucose (2.0 g/kg) solution by gavage. Blood was collected at 30 min, 60 min, and 120 min after glucose administration. The blood glucose level was measured using glucose oxidase-peroxidase method, and the area under the blood glucose curve was calculated.
The data were expressed as mean±SD. The comparison between multiple groups was performed by one-way analysis of variance, and the comparison between two groups was performed by Dunnett's t test. Statistical graphing was performed using Graphpad Prism software.

[1] = system: spontaneous type 2 diabetes mellitus db/db mice; assay: Pharmacodynamic effect on spontaneous type 2 diabetes mellitus db/db mice; format: in vivo; settings: for AUC of blood glucose: 0-24 h; for Concentration of blood glucose 0 h / Concentration of blood glucose 1 h / Concentration of blood glucose 2 h / Concentration of blood glucose 4 h / Concentration of blood glucose 6 h / Concentration of blood glucose 8 h / Concentration of blood glucose 24 h: fasting; for Concentration of blood glucose 0 h: 0 h before administration; for HbA1c: 28th day; for Random blood glucose, the 22nd day (title: 28th day): column head 22nd day
Procedure: Test example 4 Pharmacodynamic effect of the compounds of the present invention on spontaneous type 2 diabetes mellitus db/db mice
Spontaneous type 2 diabetes mellitus db/db mice and the normal control db/m mice (male, 5-6 weeks old) were used. The db/db mice were randomly divide into […] based on random blood glucose, fasting blood glucose, percentage of blood glucose reduction at 40 min, blood triglycerides, total blood cholesterol, and body weight, which were model group (con), positive control group and three groups of test compound with different doses (n=10).
Mice were administered with drugs by gavage.
The mice were fasted for 2 h, and then the 0 h (fasting) blood samples were collected. Then the mice in each group were administered with drugs by gavage, and blood samples were collected at 1 h, 2 h, 4 h, 6 h, 8 h and 24 h after administration. The blood glucose level was measured using glucose oxidase-peroxidase method, and the area under the blood glucose curve was calculated. Moreover, urine samples were collected 2 h and 4 h after administration to determine the concentration of urine glucose.
On the 15th day of continuous administration, before the mice were fasted, blood samples were collected to measure the random blood glucose. Then the mice were fasted and administered with the compounds, and after 2 h, blood samples were collected to measure the fasting blood glucose. […]
The data were expressed as mean±SEM (n=10). The comparison between multiple groups was performed by one-way analysis of variance, and the comparison between two groups was performed by Dunnett's t test. Statistical graphing was performed using Graphpad Prism software.

[2] = 0.5 mg/kg single administration
[3] = 1.0 mg/kg single administration
[4] = 2.0 mg/kg single administration
[5] = 22nd day of continuous administration, 0.5, 1.0 and 2.0 mg/kg

SGLT2, sequence (P31639 whole entry): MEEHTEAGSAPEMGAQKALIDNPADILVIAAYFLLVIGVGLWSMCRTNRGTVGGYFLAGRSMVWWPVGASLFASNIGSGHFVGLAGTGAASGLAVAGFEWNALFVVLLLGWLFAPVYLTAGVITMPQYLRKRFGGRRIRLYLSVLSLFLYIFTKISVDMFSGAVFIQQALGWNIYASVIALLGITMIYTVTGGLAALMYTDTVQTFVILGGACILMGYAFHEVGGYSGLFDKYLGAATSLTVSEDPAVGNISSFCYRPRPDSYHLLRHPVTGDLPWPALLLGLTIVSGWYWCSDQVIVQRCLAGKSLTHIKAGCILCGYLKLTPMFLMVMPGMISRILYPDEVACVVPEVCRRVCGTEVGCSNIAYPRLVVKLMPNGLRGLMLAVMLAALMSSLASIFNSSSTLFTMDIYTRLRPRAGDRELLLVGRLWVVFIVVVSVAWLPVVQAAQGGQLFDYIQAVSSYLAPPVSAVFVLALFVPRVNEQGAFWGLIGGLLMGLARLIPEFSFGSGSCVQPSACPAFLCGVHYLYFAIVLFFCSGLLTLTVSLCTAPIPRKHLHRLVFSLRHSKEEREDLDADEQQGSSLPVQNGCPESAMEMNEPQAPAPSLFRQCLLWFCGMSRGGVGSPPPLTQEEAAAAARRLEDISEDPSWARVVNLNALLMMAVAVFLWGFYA

Compound: CS[C@H]1O[C@@H](c2ccc(C)c(Cc3ccc4c(c3)OCCO4)c2)[C@H](O)[C@@H](O)[C@@H]1O (stereo in doubt) [Compound 2, 2-[3-(2,3-dihydro-1,4-benzodioxin-6-ylmethyl)-4-methylphenyl]-6-(methylthio)oxane-3,4,5-triol]
- IC50 (SGLT2; CHO-SGLT2 cells, 1-NBDG uptake, read-out: IC50 inhibiting SGLT2): 0.105 nM
- inhibition at 1 µM (SGLT2; compound concentration 1 × 10^−6 mol/L, read-out: Inhibition rate of compounds on SGLT2 (%)): 107 ± 1.1%
- inhibition at 0.0001 µM (SGLT2; compound concentration 1 × 10^−10 mol/L, read-out: Inhibition rate of compounds on SGLT2 (%)): 40.6 ± 1%
- inhibition at 10 pM (SGLT2; compound concentration 1 × 10^−11 mol/L, read-out: Inhibition rate of compounds on SGLT2 (%)): 0%
- inhibition at 1 pM (SGLT2; compound concentration 1 × 10^−12 mol/L, read-out: Inhibition rate of compounds on SGLT2 (%)): 0.3 ± 6.4%
- inhibition at 0.5 µM (SGLT2; compound concentration 5 × 10^−7 mol/L, read-out: Inhibition rate of compounds on SGLT2 (%)): 81.6 ± 2.5%
- inhibition at 0.005 µM (SGLT2; compound concentration 5 × 10^−9 mol/L, read-out: Inhibition rate of compounds on SGLT2 (%)): 80.7 ± 3%
- inhibition at 0.0005 µM (SGLT2; compound concentration 5 × 10^−10 mol/L, read-out: Inhibition rate of compounds on SGLT2 (%)): 61.9 ± 3.6%
- inhibition at 50 pM (SGLT2; compound concentration 5 × 10^−11 mol/L, read-out: Inhibition rate of compounds on SGLT2 (%)): 39.2 ± 2.1%
- Blood glucose 0 min (normal ICR mice; 2 mg/kg by gavage): 75.9 ± 6.7 mg/dL
- Blood glucose 30 min (normal ICR mice; 2 mg/kg by gavage): 207.8 ± 13.6 mg/dL
- Blood glucose 60 min (normal ICR mice; 2 mg/kg by gavage): 119.3 ± 12.5 mg/dL
- Blood glucose 120 min (normal ICR mice; 2 mg/kg by gavage): 73.0 ± 11.4 mg/dL
- AUC of blood glucose (normal ICR mice; 2 mg/kg by gavage): 248.8 ± 18.0 mg·h/dL
- Reduction of the area under the curve (AUC) of blood glucose (normal ICR mice; 2 mg/kg): 37.4%
- Blood glucose 0 min (normal ICR mice; 4 mg/kg by gavage): 63.6 ± 8.3 mg/dL
- Blood glucose 30 min (normal ICR mice; 4 mg/kg by gavage): 189.5 ± 14.3 mg/dL
- Blood glucose 60 min (normal ICR mice; 4 mg/kg by gavage): 103.2 ± 5.1 mg/dL
- Blood glucose 120 min (normal ICR mice; 4 mg/kg by gavage): 78.2 ± 13.9 mg/dL
- AUC of blood glucose (normal ICR mice; 4 mg/kg by gavage): 227.1 ± 13.1 mg·h/dL
- Reduction of the area under the curve (AUC) of blood glucose (normal ICR mice; 4 mg/kg): 42.9%
- AUC of blood glucose [1, 2]: 7046 ± 253.0 mg·h/dL
- Concentration of blood glucose 0 h [1, 2]: 486.3 ± 32.9 mg/dL
- Concentration of blood glucose 1 h [1, 2]: 386.8 ± 22.3 mg/dL
- Concentration of blood glucose 2 h [1, 2]: 362.7 ± 27.2 mg/dL
- Concentration of blood glucose 4 h [1, 2]: 252.3 ± 9.7 mg/dL
- Concentration of blood glucose 6 h [1, 2]: 169.3 ± 4.4 mg/dL
- Concentration of blood glucose 8 h [1, 2]: 134.2 ± 4.6 mg/dL
- Concentration of blood glucose 24 h [1, 2]: 477.7 ± 25.9 mg/dL
- Fasting blood glucose, the 15th day ([1]; 0.5 mg/kg): 185.0 ± 13.6 mg/dL
- Random blood glucose, the 15th day ([1]; 0.5 mg/kg): 307.9 ± 18.4 mg/dL
- Fasting blood glucose, the 22nd day ([1]; 0.5 mg/kg): 193.8 ± 14.7 mg/dL
- HbA1c ([1]; 0.5 mg/kg): 4.7 ± 0.3 %
- Random blood glucose, the 22nd day (title: 28th day) ([1]; 0.5 mg/kg): 272.4 ± 16.5 mg/dL
- AUC of blood glucose [1, 3]: 6952 ± 295.8 mg·h/dL
- Concentration of blood glucose 0 h [1, 3]: 552.2 ± 24.2 mg/dL
- Concentration of blood glucose 1 h [1, 3]: 412.5 ± 13.1 mg/dL
- Concentration of blood glucose 2 h [1, 3]: 362.3 ± 23.7 mg/dL
- Concentration of blood glucose 4 h [1, 3]: 256.0 ± 10.1 mg/dL
- Concentration of blood glucose 6 h [1, 3]: 161.8 ± 6.9 mg/dL
- Concentration of blood glucose 8 h [1, 3]: 124.3 ± 5.8 mg/dL
- Concentration of blood glucose 24 h [1, 3]: 470.7 ± 25.6 mg/dL
- Fasting blood glucose, the 15th day ([1]; 1.0 mg/kg): 197.9 ± 11.2 mg/dL
- Random blood glucose, the 15th day ([1]; 1.0 mg/kg): 322.7 ± 11.1 mg/dL
- Fasting blood glucose, the 22nd day ([1]; 1.0 mg/kg): 204.1 ± 12.2 mg/dL
- HbA1c ([1]; 1.0 mg/kg): 4.8 ± 0.2 %
- Random blood glucose, the 22nd day (title: 28th day) ([1]; 1.0 mg/kg): 258.4 ± 12.8 mg/dL
- AUC of blood glucose [1, 4]: 6507 ± 269.6 mg·h/dL
- Concentration of blood glucose 0 h [1, 4]: 519.3 ± 30.7 mg/dL
- Concentration of blood glucose 1 h [1, 4]: 377.0 ± 9.0 mg/dL
- Concentration of blood glucose 2 h [1, 4]: 309.7 ± 13.1 mg/dL
- Concentration of blood glucose 4 h [1, 4]: 259.0 ± 14.9 mg/dL
- Concentration of blood glucose 6 h [1, 4]: 153.3 ± 10.7 mg/dL
- Concentration of blood glucose 8 h [1, 4]: 129.5 ± 12.8 mg/dL
- Concentration of blood glucose 24 h [1, 4]: 427.0 ± 20.2 mg/dL
- Fasting blood glucose, the 15th day ([1]; 2.0 mg/kg): 162.7 ± 12.1 mg/dL
- Random blood glucose, the 15th day ([1]; 2.0 mg/kg): 240.4 ± 16.4 mg/dL
- Fasting blood glucose, the 22nd day ([1]; 2.0 mg/kg): 159.5 ± 8.5 mg/dL
- HbA1c ([1]; 2.0 mg/kg): 4.0 ± 0.2 %
- Random blood glucose, the 22nd day (title: 28th day) ([1]; 2.0 mg/kg): 194.7 ± 14.0 mg/dL
- Blood triglycerides (TG) level [1, 5]: significantly lower
- Concentration of blood cholesterol [1, 5]: no effect
- Concentration of urine glucose ([1]; 2 h after single administration, 0.5, 1.0 and 2.0 mg/kg): increased
- Concentration of urine glucose ([1]; 4 h after single administration, 0.5, 1.0 and 2.0 mg/kg): not increased
- Effect on body weight, food intake and water intake ([1]; continuous administration, 0.5, 1.0 and 2.0 mg/kg): no significant effect
- Duration of blood glucose lowering ([1]; single administration, 0.5, 1.0 and 2.0 mg/kg): up to 24 h

Source: US20250129055A1, “GLUCOSIDE DERIVATIVE, AND PREPARATION METHOD THEREFOR AND APPLICATION THEREOF” (BEIJING INCREASE INNOVATIVE DRUG CO., LTD., priority 2020, published 2025)
